Test results taken from patent US20240209028A1, “CNP COMPOUNDS” (priority 2022, published 2024).
Read-outs that look alike come from different tables or passages of the source. Starred links: 1 amine or outer side, 2 acyl side, 3 side chain; linkers in the order of their positions; H or OH if unused. Positions of bridges follow the written chain, without caps; N, C: chain ends. Residues, ends and D or L forms follow the SMILES beside them. No end group written: not given here. *: point of attachment. C18 diacid = O=C(O)CCCCCCCCCCCCCCCCC(=O)*; γGlu = O=C(O)[C@H](CCC(=O)[*:2])N[*:1]; C18d = not defined here; AEEA = NCCOCCOCC(=O)O

Assays:
[1] = in vivo; cited from earlier work
[2] = target: T1, neprilysin (NEP) (Homo sapiens, UniProt P08473)
T1 sequence (P08473 whole entry): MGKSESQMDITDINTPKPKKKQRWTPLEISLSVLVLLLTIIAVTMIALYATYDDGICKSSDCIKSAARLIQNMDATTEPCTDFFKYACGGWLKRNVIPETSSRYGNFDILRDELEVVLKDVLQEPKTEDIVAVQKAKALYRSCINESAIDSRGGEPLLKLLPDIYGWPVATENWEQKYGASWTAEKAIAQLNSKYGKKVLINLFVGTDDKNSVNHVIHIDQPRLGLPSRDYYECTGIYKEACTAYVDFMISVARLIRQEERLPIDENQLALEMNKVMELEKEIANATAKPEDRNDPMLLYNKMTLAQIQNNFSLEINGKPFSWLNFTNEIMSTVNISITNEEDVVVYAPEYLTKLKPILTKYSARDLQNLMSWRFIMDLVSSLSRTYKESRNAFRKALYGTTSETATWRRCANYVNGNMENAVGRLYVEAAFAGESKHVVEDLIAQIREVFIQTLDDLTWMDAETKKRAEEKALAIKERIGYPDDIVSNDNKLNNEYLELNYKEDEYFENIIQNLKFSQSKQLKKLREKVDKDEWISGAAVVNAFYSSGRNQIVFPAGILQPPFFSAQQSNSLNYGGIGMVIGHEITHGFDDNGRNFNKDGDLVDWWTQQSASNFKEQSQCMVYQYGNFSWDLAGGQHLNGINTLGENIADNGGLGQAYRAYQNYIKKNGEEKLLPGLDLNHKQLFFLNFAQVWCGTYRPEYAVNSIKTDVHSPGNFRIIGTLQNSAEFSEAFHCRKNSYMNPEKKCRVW

[3] = target: Recombinant human neprilysin (rhNEP; R&D Systems) (human) (UniProt P08473); experiment: cell-based or functional assay
Sequence of Recombinant human neprilysin (rhNEP; R&D Systems) (human) (P08473 52-750 limits assumed): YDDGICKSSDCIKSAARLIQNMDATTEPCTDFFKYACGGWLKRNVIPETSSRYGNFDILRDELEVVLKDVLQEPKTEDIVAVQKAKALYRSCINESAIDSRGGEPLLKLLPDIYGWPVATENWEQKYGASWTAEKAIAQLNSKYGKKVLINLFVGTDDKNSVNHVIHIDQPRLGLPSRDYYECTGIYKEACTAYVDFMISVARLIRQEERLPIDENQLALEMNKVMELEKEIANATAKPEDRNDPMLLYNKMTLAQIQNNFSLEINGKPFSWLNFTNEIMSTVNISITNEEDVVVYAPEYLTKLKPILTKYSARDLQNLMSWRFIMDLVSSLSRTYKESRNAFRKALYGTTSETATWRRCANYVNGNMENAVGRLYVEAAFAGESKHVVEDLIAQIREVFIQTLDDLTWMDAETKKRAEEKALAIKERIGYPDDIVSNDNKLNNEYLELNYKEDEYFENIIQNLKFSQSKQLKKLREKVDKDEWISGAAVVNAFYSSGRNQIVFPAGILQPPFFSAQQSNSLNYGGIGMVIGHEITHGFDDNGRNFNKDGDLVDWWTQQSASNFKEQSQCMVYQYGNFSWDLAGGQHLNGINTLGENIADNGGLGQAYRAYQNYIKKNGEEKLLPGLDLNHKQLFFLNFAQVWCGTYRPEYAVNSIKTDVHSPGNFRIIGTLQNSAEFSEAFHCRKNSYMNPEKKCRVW

[4] = CNP local tolerance study in LYD pigs (s.c. injection, histopathology); type: in vivo, domestic LYD pig; conditions: LYD pig, s.c., approx. 4400 μM, 4 or 5 days after injection
Text: The purpose of this study was to evaluate the local tissue reaction response to subcutaneous injection of CNP compounds in pigs.
Procedure: In domestic pigs, the injection site was subjected to histopathologic examination after subcutaneous dosing. Injections were placed mid-back between the shoulder and hip on both sides of the dorsal midline, and one or two days before injection sites of 2×2 cm were shaved and marked by permanent ink under light anaesthesia. Each injection consisted of 100 or 200 μl formulation with a concentration of approx. 4400 μM. CNP compound formulations were prepared according to the principles in General Methods of Preparation—Method G, and were either A) 8 mM sodium phosphate, 250 mM glycerol, pH 6.5, B) 5 mM sodium acetate, 250 mM glycerol, pH 4.0 or C) 5 mM sodium acetate, 240 mM propylene glycol, pH 4.0 and physiological saline was included as negative control.
On Day 1 the pigs were lightly anaesthetised. An insulin pen (NovoPen 4) and insulin needle (NovoTwist 32G/5 mm) were used for accurate deposition of the CNP formulations in the subcutaneous fat tissue with the needle perpendicular to the skin. On Day 5 (4 days post injection) or 6 (5 days post injection), the pigs were euthanised, and the injection sites were removed and fixed in 4% phosphate buffered neutral formaldehyde in sealed plastic containers. The tissue blocks were prefixed for 2-4 hours in 10% buffered formalin, cut into 2 mm thick slabs with a multi knife, examined for macroscopic changes and finally fixed overnight in cassettes. Two slabs of tissue were selected for light microscopic evaluation where the tissue reaction was maximal or alternatively in the central part of the injection site. Three to four 2-4 μm sections were cut from three levels at 100 μm distance, stained with haematoxylin and eosin (H&E) and evaluated in a light microscope. Histopathological changes were graded on a 5-level scale ((Minimal (Min), Mild (Mil), Moderate (Mod), Marked (Mar) and Severe (Sev)). The studies are summarised in Table 18.
Results: The results are summarised in Table 19. * Necrosis was used as a marker for local subcutaneous reactions; **NAD: No Abnormalities Detected

[5] = target: T1, neprilysin (NEP); experiment: In vitro neprilysin stability; conditions: recombinant human neprilysin (rhNEP), pH 7.4
[6] = Local tolerance of CNP compounds in rats (s.c. injection, histopathology); type: in vivo, Sprague Dawley rat; conditions: rat, s.c. 350 μl, about 1000 nmol/ml, 5 days post injection
Description: The purpose of this study was to evaluate the local tissue reaction to subcutaneous injection of CNP compounds in rats.
Procedure: The CNP compounds were formulated according to the principles described in General Methods of Preparation-Method G. Each Sprague Dawley rat (male, 10-11 weeks of age at arrival, Janvier, France) was dosed s.c. with 250 or 350 uL of the same compound (formulation concentration of 1000 nmol/mL) 120 h prior to tissue collection resulting in a total of two injections for each animal (Table 15). Injection site (flank or neck) was alternated across animals within each group and time point.
Animals had access to tap water and food (Altromin 1324) ad libitum. Group size was n=3 for vehicles and positive control, and n=4 for test compounds. Vehicles and compounds were formulated in either 5 mM sodium acetate, 250 mM glycerol, pH 4.0 or 8 mM sodium phosphate, 250 mM glycerol, pH 7.4 as shown in Table 16.
The animals were anesthetized with isoflurane. Via an electric shaving machine, a squared area of fur (2 cm×2 cm) was removed either from the rats' neck or flank area). For dosing, a new injection needle (25G canula, 1 ml syringe) was placed in the middle of the square border closest to the animal's head and the needle was inserted into the skin from the border towards the center of the square. […] On the day of tissue collection, the rats were deeply anaesthetized with isoflurane and euthanized by exsanguination. The injection sites were inspected and scored with regards to pathological lesions. The injection sites were evaluated, and any changes were noted (location, colour, shape and size), and sampled for histology preparation.
The injection sites were removed and fixed in 4% phosphate buffered neutral formaldehyde in sealed plastic containers.
Each injection site was subsequently cut into three sections 0.8 cm, 1.0 cm and 1.2 cm from the square border where the injection needle was placed, and, respectively, these sections represented the injection sites and the adjacent tissue. The tissue was processed, embedded in paraffin and cut in 2-4 μm thin sections, stained with the haematoxylin and eosin (H&E), and evaluated microscopically with a light microscope. Histopathological changes were graded on a 5-level scale (Minimal (Min), Mild (Mil), Moderate (Mod), Marked (Mar) and Severe (Sev)).

[7] = PK after i.v. and s.c. administration to Göttingen minipig; conditions: female, in vivo, Göttingen Minipig
Description: The purpose of this study was to investigate pharmacokinetic and pharmacodynamic properties after intravenous (i.v.) and subcutaneous (s.c.) administration to Gottingen Minipig and domestic LYD pig, and to estimate bioavailability after s.c. dosing. Quantitative plasma analysis of CNP and cGMP levels were performed as described in
Animals and dosing: The pharmacokinetic and pharmacodynamic studies in Gottingen Minipig or domestic LYD pig were conducted at CRO Minerva Imaging or Novo Nordisk A/S, respectively. CNP compounds were dosed to normal female 1) Gottingen minipigs 6-12 months of age with an average weight of 22 kg or 2) domestic LYD pigs 4-5 months of age with and average weight of 80 kg. At least one week prior to dosing, permanent central venous catheters were implanted for blood sampling and intravenous (i.v.) dosing. For subcutaneous (s.c.) dosing, the pigs were ultrasound scanned and the optimal injection area laterally on the neck marked by a permanent tattoo. An insulin pen (NovoPen Echo or NovoPen 4) and insulin needle (NovoFine 32G/4 mm or NovoTwist 32G/5 mm) were used for accurate deposition of the CNP formulations in the subcutaneous fat tissue with the needle perpendicular to the skin.
CNP compounds were formulated according to the principles in General Methods of Preparation—Method G and were either A) 8 mM sodium phosphate, 250 mM glycerol, pH 6.5, B) 5 mM sodium acetate, 250 mM glycerol, pH 4.0, C) 5 mM sodium acetate, 240 mM propylene glycol, pH=4.0, D) 8 mM sodium phosphate, 250 mM glycerol, pH 7.5 or E) 20 mM sodium phosphate, 223 mM propylene glycol, pH 6.0.
Intravenously, the CNP compounds were dosed at 30-60 nmol/kg to Minipig and 15-43 nmol/kg to domestic pig using formulations A-E. Subcutaneously, the CNP compounds were dosed at 55-62 nmol/kg to Minipig and 20-30 nmol/kg to domestic pig using formulations A-D.
Sampling: Blood samples of approximately 1 mL were collected pre dose and up to 14 days post dose into EDTA-coated tubes (8 mM) for cGMP and CNP compound analysis by LC-MS. In few instances, cGMP was only analysed up to 48 hours post dose after intravenous dosing in domestic LYD pig. The blood samples were kept on wet ice for maximum 30 minutes until centrifugation for 10 minutes at 4° C. and minimum 1500G, and the plasma samples were stored at −20° C. until analysis.
Plasma concentration-time profiles were analyzed by non-compartmental PK analysis using Phoenix WinNonlin 8.1, Pharsight Inc., Mountain View, CA, USA. Calculation of the area under the plasma concentration-time curve (AUC) was based on the “linear up log down” method, and uniform weighting was used for estimation of the terminal rate constant (λz). S.c. bioavailability (F) was calculated as the dose-normalized AUC (AUC/dose) after s.c. administration divided by the AUC/dose after i.v. administration. […]

[8] = target: Recombinant human neprilysin (rhNEP; R&D Systems) (human, UniProt P08473 52-750); experiment: cell-based or functional assay
Sequence of Recombinant human neprilysin (rhNEP; R&D Systems) (P08473 52-750 limits assumed): as above

In the case of “wt CNP: wild-type C-type natriuretic peptide; half-life of approximately two minutes”, the half-life [1] is listed as “approximately two”.

For `CC[C@H](C)[C@@H]1NC(=O)[C@H](CCCNC(=N)N)NC(=O)[C@H](CC(=O)O)NC(=O)[C@H](CC(C)C)NC(=O)[C@H](CCCCN)NC(=O)[C@H](CC(C)C)NC(=O)CNC(=O)[C@H](Cc2ccccc2)NC(=O)[C@@H](NC(=O)CNC(=O)[C@H](CCCCN)NC(=O)[C@H](CO)NC(=O)[C@H](CC(C)C)NC(=O)CN)CSSC[C@@H](C(=O)O)NC(=O)CNC(=O)[C@H](CC(C)C)NC(=O)CNC(=O)[C@H](CO)NC(=O)[C@H](CCSC)NC(=O)[C@H](CO)NC(=O)CNC1=O` [Compound ID 0065, hCNP22], the “stability in the presence of recombinant human neprilysin” value [2] was “rapidly degraded”.

“Compound ID 9483, [N-terminal(C18d-4xgGlu), 5Q, 13Q, 19S, 25P, 27E, 32L]-hCNP37 (peptide)” gave a Remaining of parent after 90 min (%) [3] of 106%.

For `CC[C@H](C)[C@@H]1NC(=O)[C@H](CCCNC(=N)N)NC(=O)[C@H](CC(=O)O)NC(=O)[C@H](CC(C)C)NC(=O)[C@@H]2CCCN2C(=O)[C@H](CC(C)C)NC(=O)CNC(=O)[C@H](Cc2ccccc2)NC(=O)[C@@H](NC(=O)CNC(=O)[C@H](CCC(N)=O)NC(=O)[C@H](CO)NC(=O)[C@H](CO)NC(=O)CNC(=O)[C@H](CCCCN)NC(=O)[C@H](CCCCN)NC(=O)[C@H](CCC(N)=O)NC(=O)[C@H](C)NC(=O)CNC(=O)[C@@H]2CCCN2C(=O)[C@H](C)NC(=O)[C@H](CCC(N)=O)NC(=O)CNC(=O)COCCOCCNC(=O)COCCOCCNC(=O)CC[C@H](NC(=O)CCCCCCCCCCCCCCCCC(=O)O)C(=O)O)CSSC[C@@H](C(=O)O)NC(=O)CNC(=O)[C@H](CC(C)C)NC(=O)CNC(=O)[C@H](CO)NC(=O)[C@H](CC(C)C)NC(=O)[C@H](CO)NC(=O)CNC1=O` [Compound 9384] ({C18 diacid-γGlu-AEEA-AEEA}-GQAPGAQKKGSSQGCFGLPLDRIGSLSGLGC-OH; disulfide 15-31), the “Number of injections by severity of necrosis: Min.” value [4] was 1, the “Number of injections by severity of necrosis: NAD” value [4] was 3 and the remaining at 1.5 h, 1000 nM [5] was 87.8%. The “Number of injections by severity of necrosis: NAD (No Abnormalities Detected)” value [6] was 4, the clearance ([7]; iv, i.v., read-out: CL (ml/hr/kg), Intravenous PK (converted)) was 1.53 mL/h/kg and the half-life ([7]; iv, i.v., read-out: T½, iv (converted)) was 61 h. The bioavailability ([7]; sc, s.c. bioavailability, read-out: F (%), Subcutaneous PK) was 78% and the half-life ([7]; sc, s.c., read-out: T½, sc (converted)) was 61 h.

B1: Compound ID 9407, [N-terminal(C18d-5xgGlu-4xOEG), des1-5, 13Q, 19Q, 25P, 32L]-hCNP37 (peptide)
peptide: {C18d-γGlu-γGlu-γGlu-γGlu-γGlu-AEEA-AEEA-AEEA-AEEA}-ARKYKGAQKKGLSQGCFGLPLDRIGSLSGLGC
modifications: disulfide 16-32 (inferred); reading uncertain; also: printed as [N-terminal(C18d-5xgGlu-4xOEG), des1-5, 13Q, 19Q, 25P, 32L]-hCNP37
In the case of B1, the “Remaining of parent after 90 min (%)” value [8] is reported as 96.6%.

B2: Compound ID 9435, [N-terminal(C18d-2xgGlu-4xOEG), des1-8, 13Q, 17G, 19Q, 25P, 32L]-hCNP37 (peptide)
peptide: {C18d-γGlu-γGlu-AEEA-AEEA-AEEA-AEEA}-YKGAQKKGGSQGCFGLPLDRIGSLSGLGC
modifications: disulfide 13-29 (inferred); reading uncertain; also: printed as [N-terminal(C18d-2xgGlu-4xOEG), des1-8, 13Q, 17G, 19Q, 25P, 32L]-hCNP37
For B2, the “Remaining of parent after 90 min (%)” value [8] was 93.2%.

In the case of {C18d-γGlu-γGlu-γGlu-γGlu-γGlu}-QEHPQARKYKGAQKKGLSSGCFGLPLDRIGSLSGLGC (disulfide 21-37 (inferred); reading uncertain) [Compound ID 9482, [N-terminal(C18d-5xgGlu), 5Q, 13Q, 19S, 25P, 32L]-hCNP37], the “Remaining of parent after 90 min (%)” value [8] is reported as 96.3%.

B3: Compound ID 9480, [N-terminal(C18d-3xgGlu-4xOEG), des1-8, 13Q, 19Q, 25P, 32L]-hCNP37 (peptide)
peptide: {C18d-γGlu-γGlu-γGlu-AEEA-AEEA-AEEA-AEEA}-YKGAQKKGLSQGCFGLPLDRIGSLSGLGC
modifications: disulfide 13-29 (inferred); reading uncertain; also: printed as [N-terminal(C18d-3xgGlu-4xOEG), des1-8, 13Q, 19Q, 25P, 32L]-hCNP37
With B3 the “Remaining of parent after 90 min (%)” value [8] was 98.3%.

B4: Compound ID 9384, [N-terminal(C18d-gGlu-2xOEG-GQAP), des1-10, 13Q, 17S, 19Q, 25P, 32L]-hCNP37 (peptide)
peptide: {C18d-γGlu-AEEA-AEEA}-GQAPGAQKKGSSQGCFGLPLDRIGSLSGLGC
modifications: disulfide 15-31 (inferred); reading uncertain; also: printed as [N-terminal(C18d-gGlu-2xOEG-GQAP), des1-10, 13Q, 17S, 19Q, 25P, 32L]-hCNP37
In the case of B4, the “Remaining of parent after 90 min (%)” value [8] is reported as 87.8%.
